Source: US7572635B2, “Method for agrobacterium transformation for dihaploid corn plants” (Monsanto Technology LLC, priority 2004, dated 2009)

Experiments:
[1] = tested on: R0 plants; assay: Comparison of doubling with and without colchicine: ploidy number of R0 plants; type: in vivo, corn
Text: Comparison of Doubling with and without Colchicine
This is about a 3-fold increase in the amount of doubling. The doubling from the Agrobacterium-mediated transformation process is about as efficient as a very low level of colchicine (50%), but not as effective as a more typical amount (83%).

[2] = tested on: plant tissues; assay: Regenerability of plant tissues exposed to colchicine (own experiments); type: cell-based; conditions: levels of colchicine below levels used for chromosome doubling
Text: The ability to produce dihaploid transformed plants without the use of an added chromosome doubling agent is a huge advantage. Chromosome doubling agents tend to be highly toxic chemicals because they are antimicrotubule agents. Also, when using chromosome doubling agents to produce dihaploids from haploids some tetraploids are formed as well. Also, optimization of the chromosome doubling agent is detrimental to the production of transformants in the transformation process.

## COc1cc2c(c(OC)c1OC)-c1ccc(OC)c(=O)cc1[C@@H](NC(C)=O)CC2 [colchicine]
[1]; no transformation + 0.01% colchicine + plant regeneration (very low level of colchicine)
  % diploid: 50%
[1]; no transformation + 0.025% colchicine + plant regeneration (more typical amount used for doubling)
  % diploid: 83%
[2]
  regenerability of plant tissues: greatly diminish the regenerability of plant tissues
